Results published in ChEMBL document CHEMBL1201862, “PubChem BioAssay data set” (2004).
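Briefly, cells in 96-well plates were exposed to five compound concentrations for 48 h, and endpoints were estimated by linear interpolation. GI50 is the concentration that inhibits growth by half.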 Active and inactive are the calls of the source. Rule as the data show it: active = GI50 up to about 1.1 µM and inactive = higher.

Columns and labels:
Assay in all cases: growth of human tumour cells (NCI), 48 h
IGROV-1 = test system: IGROV-1
UACC-257 = test system: UACC-257
LOX IMVI = test system: LOX IMVI
CAKI-1 = test system: CAKI-1
OVCAR-5 = test system: OVCAR-5
A498 = test system: A498
MDA-MB-231 = test system: MDA-MB-231
M14 = test system: M14
PC-3 = test system: PC-3
RXF 393 = test system: RXF 393
NCI-H522 = test system: NCI-H522
MCF7 = test system: MCF7
Hs-578T = test system: Hs-578T
NCI/ADR-RES = test system: NCI/ADR-RES
COLO 205 = test system: COLO 205
HL-60 = test system: HL-60
SW-620 = test system: SW-620
HCC 2998 = test system: HCC 2998
OVCAR-4 = test system: OVCAR-4

## Cc1ccc(C)c(COCCOCn2cc(Br)c(N)nc2=O)c1
IGROV-1
  GI50: > 100 µM (inactive)
UACC-257
  GI50: > 100 µM (inactive)
LOX IMVI
  GI50: > 100 µM (inactive)
CAKI-1
  GI50: > 100 µM (inactive)
OVCAR-5
  GI50: > 100 µM (inactive)
A498
  GI50: > 100 µM (inactive)
MDA-MB-231
  GI50: > 100 µM (inactive)
M14
  GI50: > 100 µM (inactive)
PC-3
  GI50: > 100 µM (inactive)
RXF 393
  GI50: > 100 µM (inactive)
NCI-H522
  GI50: > 100 µM (inactive)
MCF7
  GI50: > 100 µM (inactive)
Hs-578T
  GI50: > 100 µM (inactive)
NCI/ADR-RES
  GI50: > 100 µM (inactive)
COLO 205
  GI50: > 100 µM (inactive)
HL-60
  GI50: 14 µM (inactive)
SW-620
  GI50: > 100 µM (inactive)
HCC 2998
  GI50: > 100 µM (inactive)

## O=C(c1ccc(Cl)c(Cl)c1)N(Cc1cccnc1)C(=S)N(Cc1cccnc1)C(=O)c1ccc(Cl)c(Cl)c1
UACC-257
  GI50: 24.9 µM (inactive)
LOX IMVI
  GI50: 30.7 µM (inactive)
CAKI-1
  GI50: 31.6 µM (inactive)
OVCAR-5
  GI50: 29.2 µM (inactive)
A498
  GI50: 33.9 µM (inactive)
MDA-MB-231
  GI50: 33.1 µM (inactive)
M14
  GI50: 21.2 µM (inactive)
PC-3
  GI50: 22.1 µM (inactive)
RXF 393
  GI50: 28.4 µM (inactive)
OVCAR-4
  GI50: 25.8 µM (inactive)
NCI-H522
  GI50: 20.9 µM (inactive)
MCF7
  GI50: 7.06 µM (inactive)
Hs-578T
  GI50: 40.6 µM (inactive)
NCI/ADR-RES
  GI50: 31.3 µM (inactive)
COLO 205
  GI50: 15.6 µM (inactive)
HL-60
  GI50: 49.3 µM (inactive)
SW-620
  GI50: 29.2 µM (inactive)
HCC 2998
  GI50: 20.5 µM (inactive)

## CCCC(c1cc(C(C)(C)C)c(O)cc1C)c1cc(C(C)(C)C)c(O)cc1C
IGROV-1
  GI50: 4.04 µM (inactive)
UACC-257
  GI50: 2.31 µM (inactive)
LOX IMVI
  GI50: 1.87 µM (inactive)
CAKI-1
  GI50: 4.3 µM (inactive)
OVCAR-5
  GI50: 2.13 µM (inactive)
A498
  GI50: 2.05 µM (inactive)
MDA-MB-231
  GI50: 3.56 µM (inactive)
M14
  GI50: 2.09 µM (inactive)
PC-3
  GI50: 3.29 µM (inactive)
RXF 393
  GI50: 1.99 µM (inactive)
OVCAR-4
  GI50: 5.13 µM (inactive)
NCI-H522
  GI50: 2.33 µM (inactive)
MCF7
  GI50: 2.06 µM (inactive)
Hs-578T
  GI50: 2.79 µM (inactive)
NCI/ADR-RES
  GI50: 3.4 µM (inactive)
COLO 205
  GI50: 2.33 µM (inactive)
HL-60
  GI50: 2.27 µM (inactive)
SW-620
  GI50: 3.23 µM (inactive)
HCC 2998
  GI50: 1.75 µM (inactive)

## C[C@H](CCc1nc(C#N)c(N)o1)[C@H]1CC[C@H]2[C@@H]3[C@@H](O)CC4C[C@@H](O)CC[C@]4(C)[C@H]3C[C@@H](O)[C@]12C (some centres undefined)
IGROV-1
  GI50: 10.2 µM (inactive)
UACC-257
  GI50: 19.7 µM (inactive)
LOX IMVI
  GI50: 12.1 µM (inactive)
CAKI-1
  GI50: 30.5 µM (inactive)
OVCAR-5
  GI50: 23.3 µM (inactive)
A498
  GI50: 39.1 µM (inactive)
MDA-MB-231
  GI50: 25.6 µM (inactive)
M14
  GI50: 29 µM (inactive)
PC-3
  GI50: 9.95 µM (inactive)
RXF 393
  GI50: 16 µM (inactive)
OVCAR-4
  GI50: 1.99 µM (inactive)
NCI-H522
  GI50: 4.03 µM (inactive)
MCF7
  GI50: 33.1 µM (inactive)
Hs-578T
  GI50: 20.5 µM (inactive)
NCI/ADR-RES
  GI50: > 78.9 µM (inactive)
COLO 205
  GI50: 18.2 µM (inactive)
HL-60
  GI50: 3.62 µM (inactive)
SW-620
  GI50: 23.5 µM (inactive)
HCC 2998
  GI50: 19.1 µM (inactive)

## CC(=O)O[C@@H]1C(=O)N(c2ccccc2)[C@@H]1c1cc2ccccc2c2ccccc12
IGROV-1
  GI50: 21.6 µM (inactive)
UACC-257
  GI50: 25.5 µM (inactive)
LOX IMVI
  GI50: 20 µM (inactive)
CAKI-1
  GI50: 5.25 µM (inactive)
OVCAR-5
  GI50: 50 µM (inactive)
A498
  GI50: > 100 µM (inactive)
MDA-MB-231
  GI50: 20.3 µM (inactive)
M14
  GI50: 55.3 µM (inactive)
PC-3
  GI50: 32.9 µM (inactive)
RXF 393
  GI50: 15 µM (inactive)
OVCAR-4
  GI50: 20.5 µM (inactive)
NCI-H522
  GI50: 3.01 µM (inactive)
MCF7
  GI50: 34.2 µM (inactive)
Hs-578T
  GI50: 27.7 µM (inactive)
NCI/ADR-RES
  GI50: 33.9 µM (inactive)
COLO 205
  GI50: 16.7 µM (inactive)
HL-60
  GI50: 26.4 µM (inactive)
HCC 2998
  GI50: 25.7 µM (inactive)

## CC(=O)Nc1ccc2c(C)c3c4ccccc4n(C)c3nc2n1
IGROV-1
  GI50: 28.1 µM (inactive)
UACC-257
  GI50: 26.9 µM (inactive)
LOX IMVI
  GI50: 12.6 µM (inactive)
CAKI-1
  GI50: 12.2 µM (inactive)
OVCAR-5
  GI50: 18.6 µM (inactive)
A498
  GI50: 18.1 µM (inactive)
MDA-MB-231
  GI50: 18.7 µM (inactive)
M14
  GI50: 20.7 µM (inactive)
PC-3
  GI50: 18.9 µM (inactive)
RXF 393
  GI50: 16.1 µM (inactive)
NCI-H522
  GI50: 16.1 µM (inactive)
MCF7
  GI50: 20.8 µM (inactive)
Hs-578T
  GI50: 16.3 µM (inactive)
NCI/ADR-RES
  GI50: 22.3 µM (inactive)
COLO 205
  GI50: 12.7 µM (inactive)
HL-60
  GI50: 12.9 µM (inactive)
SW-620
  GI50: 13.2 µM (inactive)
HCC 2998
  GI50: 16.4 µM (inactive)

## CCOC(=O)C(=CNC(=S)N/N=C1\C(=O)Nc2ccccc21)C(=O)OCC
UACC-257
  GI50: > 100 µM (inactive)
LOX IMVI
  GI50: > 100 µM (inactive)
CAKI-1
  GI50: 21.1 µM (inactive)
OVCAR-5
  GI50: > 100 µM (inactive)
A498
  GI50: 41.9 µM (inactive)
MDA-MB-231
  GI50: > 100 µM (inactive)
M14
  GI50: > 100 µM (inactive)
PC-3
  GI50: > 100 µM (inactive)
RXF 393
  GI50: > 100 µM (inactive)
OVCAR-4
  GI50: > 100 µM (inactive)
MCF7
  GI50: 92.9 µM (inactive)
Hs-578T
  GI50: 48.2 µM (inactive)
NCI/ADR-RES
  GI50: 48.2 µM (inactive)
COLO 205
  GI50: 99.1 µM (inactive)
HL-60
  GI50: 31 µM (inactive)
SW-620
  GI50: > 100 µM (inactive)
HCC 2998
  GI50: > 100 µM (inactive)

## CCNC(=S)N/N=C(\C)c1cccc(C)n1
IGROV-1
  GI50: 4.36 µM (inactive)
UACC-257
  GI50: 5.2 µM (inactive)
LOX IMVI
  GI50: 18.6 µM (inactive)
OVCAR-5
  GI50: 9.31 µM (inactive)
A498
  GI50: 13.5 µM (inactive)
MDA-MB-231
  GI50: 7.36 µM (inactive)
M14
  GI50: 11 µM (inactive)
PC-3
  GI50: 5.87 µM (inactive)
RXF 393
  GI50: 45.3 µM (inactive)
NCI-H522
  GI50: 0.897 µM (active)
MCF7
  GI50: 3.32 µM (inactive)
Hs-578T
  GI50: > 100 µM (inactive)
NCI/ADR-RES
  GI50: 8.45 µM (inactive)
COLO 205
  GI50: 0.748 µM (active)
HL-60
  GI50: 3.47 µM (inactive)
SW-620
  GI50: 18.6 µM (inactive)
HCC 2998
  GI50: 3.13 µM (inactive)
